Test system: 186277-243-T-J2-PDC multi-cell spheroid viability
Test: Anticancer human tumor 186277-243-T-J2-PDC patient-derived colon adenocarcinoma cell line growth inhibition [PI3K]
Conditions: for IC50: curve of first compound; for viability, T/C: stronger effect = lower value
Procedure, shortened: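 Viability of mixed-cell spheroids was determined after exposure to pairwise combinations, one partner being inavolisib, alpelisib, duvelisib or copanlisib. Highest tested concentration matched clinical Cmax where known and 10 microM where not, descending in half-log steps.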

[1] = second compound 0.0316 µM, first compound 0.00316 µM
[2] = second compound 0.0316 µM, first compound 0.01 µM
[3] = second compound 0.0316 µM, first compound 0.0316 µM
[4] = second compound 0.0316 µM, first compound 0.1 µM
[5] = second compound 0.1 µM, first compound 0.00316 µM
[6] = second compound 0.1 µM, first compound 0.01 µM
[7] = second compound 0.1 µM, first compound 0.0316 µM
[8] = second compound 0.1 µM, first compound 0.1 µM
[9] = second compound 0.316 µM, first compound 0.00316 µM
[10] = second compound 0.316 µM, first compound 0.01 µM
[11] = second compound 0.316 µM, first compound 0.0316 µM
[12] = second compound 0.316 µM, first compound 0.1 µM
[13] = second compound 1 µM, first compound 0.00316 µM
[14] = second compound 1 µM, first compound 0.01 µM
[15] = second compound 1 µM, first compound 0.0316 µM
[16] = second compound 1 µM, first compound 0.1 µM
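Note: spheroids exposed to compounds for seven days before viability reading.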
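Throughout, for viability, T/C: 100% = DMSO vehicle control viability.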

CCN1CCN(Cc2ccc(Nc3ncc(F)c(-c4cc(F)c5nc(C)n(C(C)C)c5c4)n3)nc2)CC1 + CC(Nc1ncnc2nc[nH]c12)c1cc2cccc(Cl)c2c(=O)n1-c1ccccc1
IC50 (second compound 0.0316 µM): > 1000 nM | IC50 (second compound 0.1 µM): > 1000 nM | IC50 (second compound 0.316 µM): > 1000 nM | IC50 (second compound 1 µM): > 1000 nM | IC50 (second compound 3.16 µM): > 1000 nM | IC50 (second compound 10 µM): > 1000 nM | viability, T/C [1]: 94.6% | viability, T/C [2]: 85.9% | viability, T/C [3]: 104% | viability, T/C [4]: 108% | viability, T/C (second compound 0.0316 µM, first compound 0.316 µM): 166% | viability, T/C (second compound 0.0316 µM, first compound 1 µM): 160% | viability, T/C [5]: 98.9% | viability, T/C [6]: 84% | viability, T/C [7]: 103% | viability, T/C [8]: 120% | viability, T/C (second compound 0.1 µM, first compound 0.316 µM): 148% | viability, T/C (second compound 0.1 µM, first compound 1 µM): 148% | viability, T/C [9]: 93.5% | viability, T/C [10]: 97.6% | viability, T/C [11]: 100% | viability, T/C [12]: 124% | viability, T/C (second compound 0.316 µM, first compound 0.316 µM): 136% | viability, T/C (second compound 0.316 µM, first compound 1 µM): 143% | viability, T/C [13]: 104% | viability, T/C [14]: 99.4% | viability, T/C [15]: 104% | viability, T/C [16]: 120% | viability, T/C (second compound 1 µM, first compound 0.316 µM): 155% | viability, T/C (second compound 1 µM, first compound 1 µM): 129% | viability, T/C (second compound 3.16 µM, first compound 0.00316 µM): 102% | viability, T/C (second compound 3.16 µM, first compound 0.01 µM): 107% | viability, T/C (second compound 3.16 µM, first compound 0.0316 µM): 100% | viability, T/C (second compound 3.16 µM, first compound 0.1 µM): 119% | viability, T/C (second compound 3.16 µM, first compound 0.316 µM): 124% | viability, T/C (second compound 3.16 µM, first compound 1 µM): 108% | viability, T/C (second compound 10 µM, first compound 0.00316 µM): 78.3% | viability, T/C (second compound 10 µM, first compound 0.01 µM): 88% | viability, T/C (second compound 10 µM, first compound 0.0316 µM): 95.9% | viability, T/C (second compound 10 µM, first compound 0.1 µM): 97.7% | viability, T/C (second compound 10 µM, first compound 0.316 µM): 102% | viability, T/C (second compound 10 µM, first compound 1 µM): 78.3%

CC(=O)c1c(C)c2cnc(Nc3ccc(N4CCNCC4)cn3)nc2n(C2CCCC2)c1=O + CC(Nc1ccc2c(c1)OCCn1cc(N3C(=O)OCC3C(F)F)nc1-2)C(N)=O
IC50 (second compound 0.00316 µM): > 100 nM | IC50 (second compound 0.01 µM): > 100 nM | IC50 (second compound 0.0316 µM): > 100 nM | IC50 (second compound 0.1 µM): > 100 nM | IC50 (second compound 0.316 µM): 96.4 nM | IC50 (second compound 1 µM): < 0.316 nM | viability, T/C (second compound 0.00316 µM, first compound 0.000316 µM): 114% | viability, T/C (second compound 0.00316 µM, first compound 0.001 µM): 89.2% | viability, T/C (second compound 0.00316 µM, first compound 0.00316 µM): 82.3% | viability, T/C (second compound 0.00316 µM, first compound 0.01 µM): 98.5% | viability, T/C (second compound 0.00316 µM, first compound 0.0316 µM): 118% | viability, T/C (second compound 0.00316 µM, first compound 0.1 µM): 137% | viability, T/C (second compound 0.01 µM, first compound 0.000316 µM): 94% | viability, T/C (second compound 0.01 µM, first compound 0.001 µM): 94.8% | viability, T/C (second compound 0.01 µM, first compound 0.00316 µM): 89.8% | viability, T/C (second compound 0.01 µM, first compound 0.01 µM): 101% | viability, T/C (second compound 0.01 µM, first compound 0.0316 µM): 119% | viability, T/C (second compound 0.01 µM, first compound 0.1 µM): 132% | viability, T/C (second compound 0.0316 µM, first compound 0.000316 µM): 119% | viability, T/C (second compound 0.0316 µM, first compound 0.001 µM): 116% | viability, T/C [1]: 91.7% | viability, T/C [2]: 96.3% | viability, T/C [3]: 134% | viability, T/C [4]: 122% | viability, T/C (second compound 0.1 µM, first compound 0.000316 µM): 104% | viability, T/C (second compound 0.1 µM, first compound 0.001 µM): 89.3% | viability, T/C [5]: 102% | viability, T/C [6]: 98.6% | viability, T/C [7]: 101% | viability, T/C [8]: 89.4% | viability, T/C (second compound 0.316 µM, first compound 0.000316 µM): 85.3% | viability, T/C (second compound 0.316 µM, first compound 0.001 µM): 73.6% | viability, T/C [9]: 73.2% | viability, T/C [10]: 76.1% | viability, T/C [11]: 63.5% | viability, T/C [12]: 49.3% | viability, T/C (second compound 1 µM, first compound 0.000316 µM): 49.7% | viability, T/C (second compound 1 µM, first compound 0.001 µM): 43.5% | viability, T/C [13]: 47.5% | viability, T/C [14]: 41.2% | viability, T/C [15]: 35.7% | viability, T/C [16]: 29.6%
